In patent publication US12552753B2, “Methods and compositions for targeting Tregs using CCR8 inhibitors” (Nanjing Immunophage Biomedical Co., Ltd., priority 2020, dated 2026) one finds IC50 data, which are given here for 14 compounds.

pIC50: −log10 of the molar value. Structures can show the parent of a compound that is named as a salt. A value given as a limit tells only on which side of the number the result lay.

The target of the experiment is CCR8 (Homo sapiens, UniProt P51685). Briefly: Tango assay (Tango-CCR8-Gal4-CHO-K1 cells, CCL1-stimulated, ONE-Glo luminescence). Conditions: Tango Assay IC50, Inhibition of CCR8 Tango cell in vitro.
Chain of CCR8 (P51685 whole entry, the tested form may be a part): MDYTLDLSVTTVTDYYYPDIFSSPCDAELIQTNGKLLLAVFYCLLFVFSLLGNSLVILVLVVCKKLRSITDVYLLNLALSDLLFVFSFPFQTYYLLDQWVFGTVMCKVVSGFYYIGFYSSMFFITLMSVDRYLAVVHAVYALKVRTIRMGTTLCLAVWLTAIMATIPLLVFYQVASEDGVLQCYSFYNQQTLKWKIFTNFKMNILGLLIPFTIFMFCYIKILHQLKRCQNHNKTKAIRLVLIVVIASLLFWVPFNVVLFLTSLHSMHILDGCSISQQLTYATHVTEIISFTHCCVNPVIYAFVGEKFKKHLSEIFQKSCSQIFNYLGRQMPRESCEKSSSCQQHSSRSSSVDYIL
Protocol: The Tango cell line was used to monitor antagonists-mediated receptor inactivation.
Tango cells (Tango-CCR8-Gal4-CHO-K1 cells constructed by Genomeditech) were passaged in complete medium (F12K, 10% FBS, 1% penicillin-streptomycin, 4 μg/ml puromycin, 4 μg/ml blasticidin and 100 μg/ml hygromycin) in incubator (37° C., 5% CO2).
Twenty-four hours before the seed, cells were cultured in 10 or 15 cm dish at a density of 30% confluence in culture medium (F12K, 10% FBS, 1% penicillin-streptomycin).
Cells were suspended in starving medium (F12K, 1% FBS, 1% penicillin-streptomycin) before being seeded into black/clear 96 wells (1×10^4 cells/70 μl/well) and incubated for 6 hours (37° C., 5% CO2). Different concentration of compound, dissolved in DMSO, was into the 96-well plates, with 50 μl in each well, and incubation continued for 1 hour at 37° C.
After the incubation, the medium was removed and the 96-well plate was put in −80° C. freezer for an hour or longer. The plate and the ONE-Glo reagent (Promega, Catalog Number: E6110) which was frozen in −80° C., were taken out and rewarmed to room temperature. The ONE-Glo working reagent was prepared by mixing ONE-Glo reagent with F12K (no FBS) (1:2), and 40 μl ONE-Glo working reagent was added into each well. After incubating for 10 minutes at room temperature, the plate was read using microplate luminescence reader at 560 nm.
The microplate reader records luminescence in relative luminescence units (RLU).
For orientation: pIC50 means −log10 of the IC50, conventionally taken in molar units. A high value points to a low IC50. In turn, `Cc1ccccc1C(=O)Nc1ccc(S(=O)(=O)N[C@H](C)C2CCN(C)CC2)c(Cl)c1Cl` [Compound 275, (R)-N-(2,3-dichloro-4-(N-(1-(1-methylpiperidin-4-yl)ethyl)sulfamoyl)phenyl)-2-methylbenzamide] gave a pIC50 of 7.34. Compound `Cc1cc(S(=O)(=O)N[C@H](C)C2CCN(C)CC2)ccc1NC(=O)c1ccc(F)cc1C` [Compound 276, (R)-4-fluoro-2-methyl-N-(2-methyl-4-(N-(1-(1-methylpiperidin-4-yl)ethyl)sulfamoyl)phenyl) benzamide hydrochloride] showed a negative logarithm of the IC50 (pIC50) of 8.00. For the compound `Cc1ccc(C(=O)Nc2ccc(S(=O)(=O)N[C@H](C)C3CCN(C)CC3)cc2C)c(C)c1` [Compound 277, (R)-2,4-dimethyl-N-(2-methyl-4-(N-(1-(1-methylpiperidin-4-yl)ethyl)sulfamoyl)phenyl) benzamide], the pIC50 was 8.70. The same measure for `Cc1ccccc1C(=O)Nc1ccc(S(=O)(=O)N[C@H](C)C2CCN(C)CC2)c(F)c1C` [Compound 278, (R)-N-(3-fluoro-2-methyl-4-(N-(1-(1-methylpiperidin-4-yl)ethyl)sulfamoyl)phenyl)-2-methylbenzamide hydrochloride]: 8.22; for `CCN1CCCN(C(c2cccc(NS(=O)(=O)c3ccc4ccccc4c3)c2)C(F)(F)F)CC1` (centres unmarked) [Compound 279, N-(3-(1-(4-ethyl-1,4-diazepan-1-yl)-2,2,2-trifluoroethyl)phenyl)naphthalene-2-sulfonamide]: less than 4.00; for `CN(C)CCN1CCOc2cc(NS(=O)(=O)c3ccc4ccccc4c3)ccc2C1=O` [Compound 280, N-(4-(2-(dimethylamino)ethyl)-5-oxo-2,3,4,5-tetrahydrobenzo[f][1,4]oxazepin-8-yl)naphthalene-2-sulfonamide]: less than 4.00. The same measure for `Cc1ccccc1C(=O)Nc1ccc(S(=O)(=O)NCc2ccccc2)c2ccccc12` [Compound 281, N-(4-(N-benzylsulfamoyl)naphthalen-1-yl)-2-methylbenzamide]: less than 4.00. The compound `Cc1ccccc1C(=O)Nc1ccc(S(=O)(=O)NC(C)(C)c2ccccc2)c2ccccc12` [Compound 283, 2-methyl-N-(4-(N-(2-phenylpropan-2-yl)sulfamoyl)naphthalen-1-yl)benzamide] gave a pIC50 of less than 4.00.

The compound `CC(NS(=O)(=O)c1ccc2[nH]c(=O)ccc2c1)C1CC2CCC1CC2` (centres unmarked) [Compound 284, N-(1-(bicyclo[2.2.2]octan-2-yl)ethyl)-2-oxo-1,2-dihydroquinoline-6-sulfonamide] gave a pIC50 of less than 4.00.

`Cc1cc(S(=O)(=O)N[C@H](C)C2CCN(C(=O)OC(C)(C)C)CC2)c(C)cc1NC(=O)c1ccccc1C` [Compound 285, tert-butyl (R)-4-(1-((2,5-dimethyl-4-(2-methylbenzamido)phenyl)sulfonamido)ethyl)piperidine-1-carboxylate] showed a pIC50 of less than 4.00. Take `Cc1cc(S(=O)(=O)NC(C)(C)C2CCN(C)CC2)ccc1NC(=O)c1ccccc1C` [Compound 291, 2-methyl-N-(2-methyl-4-(N-(2-(1-methylpiperidin-4-yl)propan-2-yl)sulfamoyl)phenyl) benzamide]: the pIC50 was 6.61.

In the case of `Cc1cc(S(=O)(=O)NC(C)C(C)(C)CN(C)C)ccc1NC(=O)c1ccccc1C` (centres unmarked) [Compound 294, N-(4-(N-(4-(dimethylamino)-3,3-dimethylbutan-2-yl)sulfamoyl)-2-methylphenyl)-2-methylbenzamide hydrochlroide, hydrochloride], the pIC50 was less than 4.00.

With `Cc1cc(S(=O)(=O)N[C@H](C)C2CCN(C)CC2)ccc1NC(=O)C12CCC(CC1)CC2` [Compound 295, (R)-N-(2-methyl-4-(N-(1-(1-methylpiperidin-4-yl)ethyl)sulfamoyl)phenyl)bicyclo [2.2.2]oct-ane-1-carboxamide], the pIC50 is 8.34.

Regarding `Cc1cc(S(=O)(=O)N[C@H](C)C2CCN(C)CC2)ccc1NC(=O)c1cccc2c1CCC2` [Compound 296, (R)-N-(2-methyl-4-(N-(1-(1-methylpiperidin-4-yl)ethyl)sulfamoyl)phenyl)-2,3-dihydro-1H-indene-4-carboxamide], the negative-log IC50 (pIC50) is 8.70.
